Molecules are shown by their SMILES.

T1 sequence (Q9UBF8 1-801 isoform Q9UBF8-2): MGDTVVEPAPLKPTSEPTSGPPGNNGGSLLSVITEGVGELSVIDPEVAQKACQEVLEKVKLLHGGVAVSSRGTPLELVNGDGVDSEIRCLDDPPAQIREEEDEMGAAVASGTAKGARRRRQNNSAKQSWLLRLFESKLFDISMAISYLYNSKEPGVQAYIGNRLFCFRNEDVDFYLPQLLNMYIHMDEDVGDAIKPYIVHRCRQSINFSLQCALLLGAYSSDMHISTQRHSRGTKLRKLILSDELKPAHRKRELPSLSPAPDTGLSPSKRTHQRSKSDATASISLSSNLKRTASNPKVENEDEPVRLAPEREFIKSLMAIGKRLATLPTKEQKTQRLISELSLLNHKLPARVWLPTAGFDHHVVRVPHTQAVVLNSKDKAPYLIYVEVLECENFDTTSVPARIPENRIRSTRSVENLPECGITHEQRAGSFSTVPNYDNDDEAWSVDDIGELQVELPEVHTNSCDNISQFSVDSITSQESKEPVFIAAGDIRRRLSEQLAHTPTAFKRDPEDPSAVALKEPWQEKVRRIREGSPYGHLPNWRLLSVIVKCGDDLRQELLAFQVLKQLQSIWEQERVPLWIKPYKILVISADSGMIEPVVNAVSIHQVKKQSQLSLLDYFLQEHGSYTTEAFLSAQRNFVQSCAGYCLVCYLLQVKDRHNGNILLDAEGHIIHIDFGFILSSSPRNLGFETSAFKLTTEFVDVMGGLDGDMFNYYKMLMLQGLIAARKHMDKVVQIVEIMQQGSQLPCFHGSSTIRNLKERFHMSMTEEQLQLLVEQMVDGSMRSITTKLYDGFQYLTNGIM

This assay has as its target T1, human PI4KIII-beta 13-828 (D316-330) (Homo sapiens, UniProt Q9UBF8).
T1 construct: human PI4KIII-beta 13-828 (D316-330)
Kind of assay: PI4 KB Activity Assay (ADP-GLO Kinase assay). The note with it: 1 mM ATP, 60 μM phosphatidylinositol, 3 hours at room temperature; read-out: mean pIC50 (converted). The format is biochemical. The procedure: The in vitro inhibition of human PI4KIII-beta 13-828 (D316-330) activity was determined by using the ADP-GLO Kinase assay kit from Promega. Inhibitors were dissolved in 100% DMSO at a concentration of 1 mM. Dilutions were prepared in 100% DMSO using a 1 in 3 serial step dilution. A 60 nL stamp from an 11-point titration was transferred to a white low volume 384 well Greiner assay plate ensuring a final DMSO concentration of 1% across the plate and a top final concentration of inhibitor of 10 μM. The PI4KIII-beta assay contained 25 mM Hepes pH 7.5 (NaOH), 10 mM MgCl2, 0.5 mM EGTA, 0.1% Triton X-100, 2 mM TCEP, and 0.1 mg/ml BSA, 1 mM ATP, 60 μM phosphatidylinositol, and 1.5 nM human PI4K-beta 13-828 (D316-330) in a total volume of 6 μL. The assay was initiated with the addition of enzyme, covered, and incubated at room temperature for 3 hours. The assays were stopped with the addition of 6 μl ADP-GLO Reagent containing 0.1% CHAPS to deplete the unconsumed ATP. The plates were incubated at room temperature for 60 min and then 12 μl of the Kinase Detection Reagent containing 0.1% CHAPS was added to convert ADP to ATP and introduce luciferase and luciferin. After 40 min incubation at room temperature the luminescent signal was read on a BMG Labtech PHERAstar FS with the following settings; Gain 3600, Focal height 13.7 mm, measurement interval time 1 s, Settling time 0.2 s. The inhibitory effect of the PI4K-beta activity of the compounds was evaluated by the IC50 of the response relative to the high, no compound, and low, no enzyme, controls by fitting to the four parameter dose response question.
On the technique in general: ADP-Glo turns the ADP formed in a reaction into a luminescent signal.
Turning to `Cc1nn2c(NCc3cccc(-c4nccn4C)c3)cc(C(C)O)nc2c1-c1ccc(Cl)c(C(=O)N(C)CCCO)c1` (single isomer, unassigned) [Compound 57, 2-Chloro-5-(5-(1-hydroxyethyl)-2-methyl-7-((3-(1-methyl-1H-imidazol-2-yl)benzyl)amino)pyrazolo[1,5-a]pyrimidin-3-yl)-N-(3-hydroxypropyl)-N-methylbenzamide], the IC50 is no more than 3.98 nM.
To `Cc1ccc(-c2c(C)nn3c(NCc4cccc(-c5nccn5C)c4)cc(C(C)(C)O)nc23)cc1C(=O)N(C)CC(C)O` (single isomer, unassigned) [Compound 62, 5-(5-(2-Hydroxypropan-2-yl)-2-methyl-7-((3-(1-methyl-1H-imidazol-2-yl)benzyl)amino)pyrazolo[1,5-a]pyrimidin-3-yl)-N-(2-hydroxypropyl)-N,2-dimethylbenzamide] belongs no more than 3.98 nM; to `CCC(CO)c1cc(NCc2cccc(-c3nccn3C)c2)n2nc(C)c(-c3ccc(C)c(C(=O)N(C)CCCO)c3)c2n1` (single isomer, unassigned) [Compound 66, 5-(5-(1-Hydroxybutan-2-yl)-2-methyl-7-((3-(1-methyl-1H-imidazol-2-yl)benzyl)amino)pyrazolo[1,5-a]pyrimidin-3-yl)-N-(3-hydroxypropyl)-N,2-dimethylbenzamide], no more than 3.98 nM.
As to `CCC(O)c1cc(NCc2cccc(-c3nccn3C)c2)n2nc(C)c(-c3ccc(C)c(C(=O)N(C)CCCO)c3)c2n1` (single isomer, unassigned) [Compound 69, N-(3-Hydroxypropyl)-5-(5-(1-hydroxypropyl)-2-methyl-7-((3-(1-methyl-1H-imidazol-2-yl)benzyl)amino)pyrazolo[1,5-a]pyrimidin-3-yl)-N,2-dimethylbenzamide], the IC50 is no more than 3.98 nM.
Turning to `CCC(O)c1cc(NCc2cccc(-c3nccn3C)c2)n2nc(C)c(-c3ccc(OC)c(S(=O)(=O)CCO)c3)c2n1` (single isomer, unassigned) [Compound 75, 1-(3-(3-((2-Hydroxyethyl)sulfonyl)-4-methoxyphenyl)-2-methyl-7-((3-(1-methyl-1H-imidazol-2-yl)benzyl)amino)pyrazolo[1,5-a]pyrimidin-5-yl)propan-1-ol], the IC50 is no more than 3.98 nM.
As to `CCC(O)c1cc(NCc2cccc(-c3nccn3C)c2)n2nc(C)c(-c3ccc(C)c(C(=O)N(C)[C@@H](C)CO)c3)c2n1` (single isomer, unassigned) [Compound 80], the IC50 is no more than 3.98 nM.
With `COc1ccc(-c2c(C)nn3c(NCc4cccc(-c5nccn5C)c4)cc(C(C)(C)O)nc23)cc1C(=O)N(C)CC(C)O` (single isomer, unassigned) [Compound 83, 5-(5-(2-Hydroxypropan-2-yl)-2-methyl-7-((3-(1-methyl-1H-imidazol-2-yl)benzyl)amino)pyrazolo[1,5-a]pyrimidin-3-yl)-N-(2-hydroxypropyl)-2-methoxy-N-methylbenzamide] the figure was no more than 3.98 nM.
On to `COc1ccc(-c2c(C)nn3c(NCc4cccc(-c5nccn5C)c4)cc(C(C)O)nc23)cc1S(C)(=O)=O` (stereo not shown) [Compound 1, 1-(3-(4-Methoxy-3-(methylsulfonyl)phenyl)-2-methyl-7-((3-(1-methyl-1H-imidazol-2-yl)benzyl)amino)pyrazolo[1,5-a]pyrimidin-5-yl)ethanol], for which the IC50 is no more than 3.98 nM.
Turning to `CCC(O)c1cc(NCc2cccc(-c3nccn3C)c2)n2nc(C)c(-c3ccc(OC)c(S(=O)(=O)CCO)c3)c2n1` (stereo not shown) [Compound 3], the IC50 was no more than 3.98 nM.
As to `COc1ccc(-c2c(C)nn3c(NCc4cccc(-c5nccn5C)c4)cc(C(O)C(C)C)nc23)cc1S(=O)(=O)CCO` (stereo not shown) [Compound 5], the IC50 was no more than 3.98 nM.
With `COc1ccc(-c2c(C)nn3c(NCc4cccc(-c5nccn5C)c4)cc(C(C)(C)O)nc23)cc1S(=O)(=O)CCO` [Compound 6, 2-(3-(3-((2-Hydroxyethyl)sulfonyl)-4-methoxyphenyl)-2-methyl-7-((3-(1-methyl-1H-imidazol-2-yl)benzyl)amino)pyrazolo[1,5-a]pyrimidin-5-yl)propan-2-ol] the figure was no more than 3.98 nM.
To `Cc1nn2c(NCc3cccc(-c4nccn4C)c3)cc(C(C)(C)O)nc2c1-c1ccc(Cl)c(C(=O)N(C)CCCO)c1` [Compound 7, 2-Chloro-5-(5-(2-hydroxypropan-2-yl)-2-methyl-7-((3-(1-methyl-1H-imidazol-2-yl)benzyl)amino)pyrazolo[1,5-a]pyrimidin-3-yl)-N-(3-hydroxypropyl)-N-methylbenzamide] belongs no more than 3.98 nM.
With `COc1ccc(-c2c(C)nn3c(NCc4cccc(-c5nccn5C)c4)cc(C(C)O)nc23)cc1C(=O)N(C)CCCO` (stereo not shown) [Compound 9, 5-(5-(1-Hydroxyethyl)-2-methyl-7-((3-(1-methyl-1H-imidazol-2-yl)benzyl)amino)pyrazolo[1,5-a]pyrimidin-3-yl)-N-(3-hydroxypropyl)-2-methoxy-N-methylbenzamide] the figure was no more than 3.98 nM; with `Cc1nn2c(NCc3cccc(-c4nccn4C)c3)cc(C(C)O)nc2c1-c1ccc(Cl)c(C(=O)N(C)CCCO)c1` (stereo not shown) [Compound 10], no more than 3.98 nM; with `CCN(CCO)C(=O)c1cc(-c2c(C)nn3c(NCc4cccc(-c5nccn5C)c4)cc(C(C)O)nc23)ccc1OC` (stereo not shown) [Compound 11], no more than 3.98 nM.
For the molecule `Cc1nn2c(NCc3cccc(-c4nccn4C)c3)cc(C(C)O)nc2c1-c1ccc(Cl)c(C(=O)N2CC[C@H](O)C2)c1` (stereo partly shown) [Compound 14], the IC50 is no more than 3.98 nM.
Turning to `CCN(CCO)C(=O)c1cc(-c2c(C)nn3c(NCc4cccc(-c5nccn5C)c4)cc(C(C)O)nc23)ccc1Cl` (stereo not shown) [Compound 15, 2-chloro-N-ethyl-N-(2-hydroxyethyl)-5-(5-(1-hydroxyethyl)-2-methyl-7-((3-(1-methyl-1H-imidazol-2-yl)benzyl)amino)pyrazolo[1,5-a]pyrimidin-3-yl)benzamide], the IC50 is no more than 3.98 nM.
With `Cc1nn2c(NCc3cccc(-c4nccn4C)c3)cc(C(C)(C)O)nc2c1-c1ccc(Cl)c(C(=O)N2CC[C@H](O)C2)c1` [Compound 18] the figure was no more than 3.98 nM.
`COc1ccc(-c2c(C)nn3c(NCc4cccc(-c5nccn5C)c4)cc(C(C)(C)O)nc23)cc1C(=O)N(C)[C@@H](C)CO` [Compound 20, (S)—N-(1-hydroxypropan-2-yl)-5-(5-(2-hydroxypropan-2-yl)-2-methyl-7-((3-(1-methyl-1H-imidazol-2-yl)benzyl)amino)pyrazolo[1,5-a]pyrimidin-3-yl)-2-methoxy-N-methylbenzamide]: the IC50 is no more than 3.98 nM.
To `Cc1nn2c(NCc3cccc(-c4nccn4C)c3)cc(C(C)(C)O)nc2c1-c1ccc(Cl)c(C(=O)N2CCC[C@@H]2CO)c1` [Compound 24] belongs no more than 3.98 nM.
To `Cc1ccc(-c2c(C)nn3c(NCc4cccc(-c5nccn5C)c4)cc(C(C)(C)O)nc23)cc1C(=O)N1CCC[C@@H]1CO` [Compound 25, (R)-(2-(hydroxymethyl)pyrrolidin-1-yl)(5-(5-(2-hydroxypropan-2-yl)-2-methyl-7-((3-(1-methyl-1H-imidazol-2-yl)benzyl)amino)pyrazolo[1,5-a]pyrimidin-3-yl)-2-methylphenyl)methanone] belongs no more than 3.98 nM.
To `Cc1ccc(-c2c(C)nn3c(NCc4cccc(-c5nccn5C)c4)cc(C(C)(C)O)nc23)cc1C(=O)N1CC[C@H](O)C1` [Compound 29, (S)-(5-(5-(2-hydroxypropan-2-yl)-2-methyl-7-((3-(1-methyl-1H-imidazol-2-yl)benzyl)amino)pyrazolo[1,5-a]pyrimidin-3-yl)-2-methylphenyl)(3-hydroxypyrrolidin-1-yl)methanone] belongs no more than 3.98 nM; to `Cc1ccc(-c2c(C)nn3c(NCc4cccc(-c5nccn5C)c4)cc(C(C)(C)O)nc23)cc1C(=O)N1CCC(C)(O)C1` (stereo not shown) [Compound 31], no more than 3.98 nM.
With `COc1ccc(-c2c(C)nn3c(NCc4cccc(-n5cccn5)c4)cc(C(C)(C)O)nc23)cc1C(=O)N(C)CCCO` [Compound 33], the IC50 was no more than 3.98 nM.
In the case of `Cc1ccc(-c2c(C)nn3c(NCc4cccc(-n5cccn5)c4)cc(C(C)(C)O)nc23)cc1C(=O)N(C)CCCO` [Compound 34], the IC50 is no more than 3.98 nM.
With `Cc1ccc(-c2c(C)nn3c(NCc4cccc(-n5cccn5)c4)cc(C(C)(C)O)nc23)cc1C(=O)N1CCC[C@@H]1CO` [Compound 35], the IC50 was no more than 3.98 nM.
In the case of `COc1ccc(-c2c(C)nn3c(NCc4cccc(-c5nccn5C)c4)cc(C(C)(C)O)nc23)cc1C(=O)N1CCC[C@@H]1CO` [Compound 36, (R)-(2-(hydroxymethyl)pyrrolidin-1-yl)(5-(5-(2-hydroxypropan-2-yl)-2-methyl-7-((3-(1-methyl-1H-imidazol-2-yl)benzyl)amino)pyrazolo[1,5-a]pyrimidin-3-yl)-2-methoxyphenyl)methanone], the IC50 is no more than 3.98 nM.
With `Cc1nn2c(NCc3cccc(-c4nccn4C)c3)cc(C(C)(C)O)nc2c1-c1ccc(Cl)c(C(=O)N(C)CCO)c1` [Compound 37, 2-Chloro-N-(2-hydroxyethyl)-5-(5-(2-hydroxypropan-2-yl)-2-methyl-7-((3-(1-methyl-1H-imidazol-2-yl)benzyl)amino)pyrazolo[1,5-a]pyrimidin-3-yl)-N-methylbenzamide], the IC50 was no more than 3.98 nM.

Source of the values: patent publication US11649238B2, “Substituted pyrazolo[1,5-a]pyrimidines as PI4K inhibitors” (GLAXOSMITHKLINE INTELLECTUAL PROPERTY DEVELOPMENT LIMITED, priority 2018, dated 2023).
